Laboratory results as given in patent US10604490B2, “Processes for preparing ASK1 inhibitors” (Gilead Sciences, Inc., priority 2014, dated 2020).
Values after ≈ are worked out from the molar mass of the structure shown. Read-outs that look alike come from different tables or passages of the source.

Key:
[1] = Hydrate screen: solubility in EtOH/water mixtures with different water activities; type: physicochemical; conditions: thermodynamic from solid, slurry at room temperature
Method: A hydrate screen of Compound of Formula (D) was performed using a mixture of anhydrous forms of Compound of Formula (D) Form II and of Compound of Formula (D) Form I and EtOH/water solvent mixtures with different water activities (Table 1). Compound of Formula (D) Form II and Compound of Formula (D) Form I (about 20 to about 40 mg) was slurried in about 1 mL of EtOH/water or water. Samples were analyzed after about 1 day and after about 2 weeks of equilibration at room temperature. Pure anhydrous Compound of Formula (D) Form I was obtained after 1 day in mixtures with about 0.2 to about 0.4 water activity. However, after 2 weeks of equilibration a new form was obtained in EtOH/water with 0.4 water activity. This form was designated as Compound of Formula (D) Form III. Compound of Formula (D) hydrate Form I was obtained in solvents with about 0.5 to about 1.0 water activity after 1 day and after about 2 weeks.

[2] = DVS analysis (moisture uptake); type: physicochemical; conditions: at 90% RH
Method: Compound of Formula (D) Form I was obtained after the isothermal hold of Compound of Formula (D) hydrate Form I at about 150° C. Compound of Formula (D) Form I was also obtained after KF analysis of Compound of Formula (D) Form II and Compound of Formula (D) Form I at about 180° C. Slurries of Compound of Formula (D) hydrate Form I in water miscible organic solvents also afforded Compound of Formula (D) Form I (MeCN, MeOH, EtOH, IPA, acetone, and THF). […] (FIG. 10). DSC thermogram afforded single endotherm with onset at about 252° C. (FIG. 11). […] No form change was observed after DVS.

[3] = slurry at room temperature
Method: (§1) A stable form screen of Compound of Formula (D) hydrate Form I was performed in an attempt to determine the stability of Compound of Formula (D) hydrate Form I in different organic solvents. […] Compound of Formula (D) hydrate Form I (about 50 to about 60 mg) was slurried in about 1 mL of chosen solvent. Solids were analyzed by XRPD after about 1 day and about 2 weeks of equilibration at room temperature.
as §1, with “in” for “in about”, “after” for “after about”, “and” for “and about”

## Cc1cc(F)c(C(=O)O)cc1-n1cnc(C2CC2)c1 [5-(4-cyclopropyl-1H-imidazol-1-1-2-fluoro-4-methylbenzoic acid]
[1]; EtOH/water solvent mixture, aqueous with cosolvent or surfactant or cyclodextrin, EtOH/water, water activity 0.9 (water 0.825 mL, EtOH 0.175 mL)
  Solubility: 3930 µg/mL (≈ 15.1 mM)
[1]; EtOH/water solvent mixture, organic solvent or mixture, EtOH/water, water activity 0.2 (water 0.031 mL, EtOH 0.969 mL)
  Solubility: 7270 µg/mL (≈ 27.9 mM)
[1]; EtOH/water solvent mixture, organic solvent or mixture, EtOH/water, water activity 0.3 (water 0.066 mL, EtOH 0.934 mL)
  Solubility: 8060 µg/mL (≈ 31 mM)
[1]; EtOH/water solvent mixture, organic solvent or mixture, EtOH/water, water activity 0.4 (water 0.077 mL, EtOH 0.923 mL)
  Solubility: 7860 µg/mL (≈ 30.2 mM)
[1]; EtOH/water solvent mixture, organic solvent or mixture, EtOH/water, water activity 0.5 (water 0.097 mL, EtOH 0.903 mL)
  Solubility: 8160 µg/mL (≈ 31.4 mM)
[1]; EtOH/water solvent mixture, organic solvent or mixture, EtOH/water, water activity 0.6 (water 0.149 mL, EtOH 0.851 mL)
  Solubility: 6590 µg/mL (≈ 25.3 mM)
[1]; EtOH/water solvent mixture, organic solvent or mixture, EtOH/water, water activity 0.7 (water 0.263 mL, EtOH 0.737 mL)
  Solubility: 6880 µg/mL (≈ 26.4 mM)
[1]; EtOH/water solvent mixture, organic solvent or mixture, EtOH/water, water activity 0.8 (water 0.481 mL, EtOH 0.519 mL)
  Solubility: 6560 µg/mL (≈ 25.2 mM)
[1]; water, water activity 1.0 (water 1.0 mL, EtOH 0)
  Solubility: 3320 µg/mL (≈ 12.8 mM)

## Cc1cc(F)c(C(=O)O)cc1-n1cnc(C2CC2)c1 [Compound of Formula (D) Form I]
[2]
  moisture uptake (DVS; slightly hygroscopic): about 0.5%

## Cc1cc(F)c(C(=O)O)cc1-n1cnc(C2CC2)c1.O [Compound of Formula (D) Hydrate Form I]
[3]; solvent 2-MeTHF
  Solubility: 4480 µg/mL
[3]; solvent Acetone
  Solubility: 1990 µg/mL
[3]; solvent DCM
  Solubility: 190 µg/mL
[3]; solvent EtOAc
  Solubility: 730 µg/mL
[3]; solvent EtOH
  Solubility: 6180 µg/mL
[3]; solvent IPA
  Solubility: 2900 µg/mL
[3]; solvent IPAc
  Solubility: 450 µg/mL
[3]; solvent MeCN
  Solubility: 400 µg/mL
[3]; solvent MeOH
  Solubility: 20670 µg/mL
[3]; solvent THF
  Solubility: 11790 µg/mL
